Reference: paper PMC3126109 (Biochemistry, 2010)
“And” between values parts separate entries of the source, which are not always exact repeats. Equal entries are not always repeated.

B1: Pyrococcus horikoshii Biotin Protein Ligase (enzyme)
chain: MLGLKTSIIGRRVIYFQEITSTNEFAKTSYLEEGTVIVADKQTMGHGRLNRKWESPEGGLWLSIVLSPKVPQKDLPKIVFLGAVGVVETLKEFSIDGRIKWPNDVLVNYKKIAGVLVEGKGDKIVLGIGLNVNNKVPNGATSMKLELGSEVPLLSVFRSLITNLDRLYLNFLKNPMDILNLVRDNMILGVRVKILGDGSFEGIAEDIDDFGRLIIRLDSGEVKKVIYGDVSLRFL

Legend:
[1] = target: T1, Pyrococcus horikoshii biotin protein ligase (PhBPL) (Pyrococcus horikoshii, UniProt O57883); assay: Steady state fluorescence titration of PhBPL with ligand; assay type: binding; settings: for blue shift of emission maximum / quenching of intrinsic protein fluorescence: saturating ligand
T1 sequence (O57883 1-235): B1 chain

E. coli BPL = settings: bio-5′-AMP synthesis; cited from earlier work
[2] = target: T1, Pyrococcus horikoshii biotin protein ligase (PhBPL); assay: Isothermal titration calorimetry of PhBPL with biotin; assay type: binding
AUC = target: the molecule itself; assay: AUC
[3] = KD, 20°C, Standard Buffer pH 7.5
[4] = KD, 30°C, Standard Buffer pH 7.5
[5] = KD, 40°C, Standard Buffer pH 7.5
[6] = KD, 50°C, Standard Buffer pH 7.5

| Molecule | Kd [1, 3] [µM] | Kd [1, 4] [µM] | Kd [1, 5] [µM] | Kd [1, 6] [µM] | blue shift of emission maximum [1] | quenching of intrinsic protein fluorescence [1] [%] | also measured |
| --- | --- | --- | --- | --- | --- | --- | --- |
| Nc1ncnc2c1ncn2[C@@H]1O[C@H](COP(=O)(O)OP(=O)(O)OP(=O)(O)O)[C@@H](O)[C@H]1O [ATP, adenosine 5′-triphosphate] | 240 | 290 | 300 | 430 | approximately 5 nm | 60 | Kd ([1]; KD, temperature range of 20-50°C): 200 to 400 µM; binding enthalpy (van’t Hoff analysis) ([1]; titrations from 20 to 50°C): -14.6 ± 6.28 kJ/mol; Km (E. coli BPL): ~3000 µM |
| Nc1ncnc2c1ncn2C1OC(COP(=O)(O)CP(=O)(O)OP(=O)(O)O)C(O)C1O (stereo not drawn) [AMPCPP, α,β-methyleneadenosine 5′-triphosphate] |  |  |  |  |  |  | Kd ([1]; 20°C, Standard Buffer pH 7.5): 150 µM; Kd ([1]; 20°C, titrated into PhBPL saturated with biotin): 140 µM; ΔG° ([1]; 20°C, titrated into PhBPL saturated with biotin, ΔG°= RTlnKD): -21.3 ± 0.42 kJ/mol |
| O=C(O)CCCC[C@@H]1SC[C@@H]2NC(=O)N[C@@H]21 [Biotin, d-biotin] | 0.2 | 0.2 | 0.51 | 0.39 | approximately 5 nm | 30 | Kd ([1]; KD, 10°C, Standard Buffer pH 7.5): 0.12 µM; increase of equilibrium dissociation constant with temperature ([1]; from 10°C to 50°C): approximately four fold; enthalpy of binding (van’t Hoff analysis) ([1]; titrations from 10 to 50°C): -18.4 ± 0.84 kJ/mol and -18.4 kJ/mol; equilibrium association constant by ITC ([2]; 20°C, direct titration): identical to that measured by fluorescence titrations; heat capacity change ([2]; temperature-dependence of binding by ITC): 5±14 cal/mole·K |
| B1 |  |  |  |  |  |  | stoichiometry N (AUC): 2 |
